Here are results for one compound from paper PMC2031891, “The cyclic nucleotide gated cation channel AtCNGC10 traffics from the ER via Golgi vesicles to the plasma membrane of Arabidopsis root and leaf cells” (BMC Plant Biology, 2007).

For the experiment, the target named is T1, AtCNGC10 (AtCNGC10-GFP) (Arabidopsis thaliana, UniProt Q9LNJ0).
T1 construct: gene CNGC10; full-length cDNA fused to EGFP (pNC10kozG) or to EGFP and FLAG (pTGC10F), transiently expressed in HEK293
T1 sequence (Q9LNJ0 1-711): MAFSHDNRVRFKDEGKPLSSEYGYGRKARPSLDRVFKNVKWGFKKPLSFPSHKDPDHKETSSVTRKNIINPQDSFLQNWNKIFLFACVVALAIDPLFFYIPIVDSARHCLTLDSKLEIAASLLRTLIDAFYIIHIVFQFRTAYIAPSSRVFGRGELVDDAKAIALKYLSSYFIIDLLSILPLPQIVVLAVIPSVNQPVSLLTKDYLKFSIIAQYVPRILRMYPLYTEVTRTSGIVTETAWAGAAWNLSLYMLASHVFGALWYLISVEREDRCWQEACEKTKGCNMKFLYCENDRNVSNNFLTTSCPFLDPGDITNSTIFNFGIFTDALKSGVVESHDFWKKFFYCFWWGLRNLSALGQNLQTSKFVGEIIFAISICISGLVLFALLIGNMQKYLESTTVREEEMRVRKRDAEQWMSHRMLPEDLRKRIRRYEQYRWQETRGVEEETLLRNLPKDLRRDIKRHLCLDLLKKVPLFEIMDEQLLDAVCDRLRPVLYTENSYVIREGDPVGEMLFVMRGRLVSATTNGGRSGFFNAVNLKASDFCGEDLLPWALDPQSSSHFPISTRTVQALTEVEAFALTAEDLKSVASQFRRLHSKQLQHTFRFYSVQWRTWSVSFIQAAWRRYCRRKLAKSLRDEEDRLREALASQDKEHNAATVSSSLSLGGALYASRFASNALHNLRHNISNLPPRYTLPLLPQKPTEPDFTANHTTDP
Put plainly: whole-cell patch clamp, HEK293. It counts as cell-based. Conditions: 100 uM in bath; 145 mM K+ out / 145 mM N-methyl-D-glucamine in; pH 7.4 bath, 25 C; activator; control was non-transfected cells, no record without the nucleotide described. (In patch-clamp work, channel activity is measured electrically.)

Molecules are shown by their SMILES.

As to `CCCC(=O)Nc1nc2c(ncn2[C@@H]2O[C@@H]3COP(=O)(O)O[C@H]3[C@H]2OC(=O)CCC)c(=O)[nH]1` [dibutyryl cGMP], the “whole-cell patch clamp, HEK293” value is “heterologously expressed AtCNGC10 conducted significant inward K^+ currents with the application of dibutyryl cGMP”.
